Test results as given in ChEMBL document CHEMBL4308882, “Synthesis, biological evaluation and molecular dynamic simulations of novel Benzofuran-tetrazole derivatives as potential agents against Alzheimer's disease” (2019).
Activity calls are given as the source filed them. The calls are words filed in the database; no cut-off is given here.

Key:
[1] = system: Caenorhabditis elegans; assay: (§1) Antialzheimer activity in Caenorhabditis elegans CL2006 harboring temperature-inducible human amyloid beta transgene assessed as reduction in AChE level at 1 mM pretreated for 48 hrs at 15 degC followed by heat stress stimulation to 25 degC for 35 hrs by amplex red assay; assay type: functional, organism-based
[2] = system: Caenorhabditis elegans; assay: as §1, with “CL4176” for “CL2006”, “amyloid beta aggregation” for “AChE level”, “thioflavin-s staining based microscopic analysis” for “amplex red assay”; assay type: functional, organism-based
[3] = system: Caenorhabditis elegans; assay: Protection against amyloid beta aggregation-induced paralysis in Caenorhabditis elegans CL4176 harboring temperature-inducible human amyloid beta transgene assessed as inhibition of paralysis at 1 mM pretreated for 48 hrs at 15 degC followed by heat stress stimulation to 25 degC for 35 hrs relative to control; assay type: functional

Structure (SMILES) | Activity [1] | inhibition [2] | inhibition at 1000 µM [3] [%]
Cc1ccc(NC(c2cn(-c3ccccc3)nc2-c2cc3ccccc3o2)c2nnnn2C(C)(C)C)cc1F (stereo unspecified) | Active | Active | 45.4
Cc1ccc(NC(c2cn(-c3ccc(Cl)cc3)nc2-c2oc3ccccc3c2C)c2nnnn2C(C)(C)C)cc1 (stereo unspecified) | Active | Active | 46.7
COc1ccc(NC(c2cn(-c3ccccc3)nc2-c2oc3ccccc3c2C)c2nnnn2C(C)(C)C)cc1 (stereo unspecified) | Active | Active | 67.1
CC(C)(C)n1nnnc1C(Nc1ccc(C(F)(F)F)c(Br)c1)c1cn(-c2ccccc2)nc1-c1cc2ccccc2o1 (stereo unspecified) | – | Active | 63.8
CC(C)(C)n1nnnc1C(Nc1ccc(F)cc1)c1cn(-c2ccccc2)nc1-c1cc2ccccc2o1 (stereo unspecified) | Active | Active | 56.5
Cc1ccc(NC(c2cn(-c3ccc(F)cc3)nc2-c2cc3ccccc3o2)c2nnnn2C(C)(C)C)cc1 (stereo unspecified) | – | Active | 42.1
